Reference: patent US7018999B2, “Methods for the treatment and prevention of pain” (Cephalon, Inc., priority 2001, dated 2006)

System: formalin-induced behavioral response
Test: formalin-induced behavioral response model (flinching/shaking, licking/biting; phase I and phase II)
[1] = dose 3 mg/kg subcutaneously two hours prior to formalin administration

SMILES | % Inhibition of Phase II [1] [%] | other results
CC(C)Oc1ccc2c(c1)CCc1c-2c2c(c3c4ccccc4n(CCO)c13)CNC2=O [IX] | 37 ± 3 | –
CC(C)Oc1ccc2c(c1)CCc1c-2c2c(c3c1[nH]c1ccc(F)cc13)CNC2=O [VIII] | – | % Inhibition of Phase II (dose 1 mg/kg subcutaneously two hours prior to formalin administration): 29 ± 4%
C[C@]1(O)C[C@H]2O[C@]1(C)n1c3ccccc3c3c4c(c5c6ccccc6n2c5c31)C(=O)NC4 [XIII] | 29 ± 5 | –
O=C1NCc2c1c1c3c4c2c2ccccc2n4C2CC[C@H](O2)C3c2ccccc2-1 (stereo partly drawn) [XIV] | 34 ± 3 | –
COc1ccc2c(c1)Cc1c-2c2c(c3c4ccccc4n(CCO)c13)CNC2=O [XVI] | 22 ± 6 | –
CCOCc1ccc2c(c1)c1c3c(c4c(c1n2CCCO)Cc1ccccc1-4)C(=O)NC3 [XV] | – | % Inhibition of Phase II (dose 10 mg/kg subcutaneously two hours prior to formalin administration): 19 ± 3%
